The supplement of paper PMC10307832

Experiments:
Experiment in all cases: relative viability (nuclei count vs DMSO), 5 days (fraction); higher = more cells survive
FG-4592 + Vorinostat = compound: Cc1nc(C(=O)NCC(=O)O)c(O)c2ccc(Oc3ccccc3)cc12 [FG-4592] + O=C(CCCCCCC(=O)Nc1ccccc1)NO [Vorinostat] (partner 1 µM)
Outline: (§1)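 After 5 days of treatment, lung cancer cells in 1536-well plates were fixed and stained in a single step (final 0.05% Triton X-100, 1% formaldehyde, 1 ug/ml Hoechst) and their nuclei counted on 4× images. Treatment had been applied by pin tool the day after seeding as one drug alone or as a fixed anchor-drug dose with five library-drug doses (not always all listed) in √10 steps. Relative viability is the nuclei count of treated wells divided by that of vehicle wells, and values are medians of duplicate plates.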

FG-4592 + Bortezomib = compound: Cc1nc(C(=O)NCC(=O)O)c(O)c2ccc(Oc3ccccc3)cc12 [FG-4592] + CC(C)C[C@H](NC(=O)[C@H](Cc1ccccc1)NC(=O)c1cnccn1)B(O)O [Bortezomib] (partner 0.002 µM)
Outline: as §1

IU1-47 + Crizotinib = compound: CC1=CC(=C(N1C2=CC=C(C=C2)Cl)C)C(=O)CN3CCCCC3 [IU1-47] + C[C@@H](Oc1cc(-c2cnn(C3CCNCC3)c2)cnc1N)c1c(Cl)ccc(F)c1Cl [Crizotinib] (partner 1 µM)
Outline: as §1

IU1-47 + Palbociclib = compound: CC1=CC(=C(N1C2=CC=C(C=C2)Cl)C)C(=O)CN3CCCCC3 [IU1-47] + CC(=O)c1c(C)c2cnc(Nc3ccc(N4CCNCC4)cn3)nc2n(C2CCCC2)c1=O [Palbociclib] (partner 0.5 µM)
Outline: as §1

| Cell Line | relative viability (FG-4592 + Vorinostat; first compound 0.08 µM) | relative viability (FG-4592 + Vorinostat; first compound 0.253 µM) | relative viability (FG-4592 + Vorinostat; first compound 0.8 µM) | relative viability (FG-4592 + Vorinostat; first compound 2.53 µM) | relative viability (FG-4592 + Vorinostat; first compound 8 µM) | relative viability (FG-4592 + Bortezomib; first compound 0.08 µM) | relative viability (FG-4592 + Bortezomib; first compound 0.253 µM) | relative viability (FG-4592 + Bortezomib; first compound 0.8 µM) | relative viability (FG-4592 + Bortezomib; first compound 2.53 µM) | relative viability (FG-4592 + Bortezomib; first compound 8 µM) | relative viability (IU1-47 + Crizotinib; first compound 0.08 µM) | relative viability (IU1-47 + Crizotinib; first compound 0.253 µM) | relative viability (IU1-47 + Crizotinib; first compound 0.8 µM) | relative viability (IU1-47 + Crizotinib; first compound 2.53 µM) | relative viability (IU1-47 + Crizotinib; first compound 8 µM) | relative viability (IU1-47 + Palbociclib; first compound 0.08 µM) | relative viability (IU1-47 + Palbociclib; first compound 0.253 µM) | relative viability (IU1-47 + Palbociclib; first compound 0.8 µM) | relative viability (IU1-47 + Palbociclib; first compound 2.53 µM) | relative viability (IU1-47 + Palbociclib; first compound 8 µM) |
| --- | --- | --- | --- | --- | --- | --- | --- | --- | --- | --- | --- | --- | --- | --- | --- | --- | --- | --- | --- | --- |
| LOU-NH91 | 0.993 | 0.86 | 0.817 | 0.866 | 0.95 | 0.509 | 0.49 | 0.48 | 0.455 | 0.568 | 0.739 | 0.808 | 0.733 | 0.708 | 0.769 | 0.524 | 0.533 | 0.539 | 0.431 | 0.507 |
| LU99A | 0.464 | 0.523 |  | 0.506 | 0.423 | 1.08 | 1.03 | 0.798 | 1.04 | 1.01 | 0.503 | 0.538 | 0.538 | 0.739 | 0.617 | 0.373 | 0.43 | 0.399 | 0.496 | 0.372 |
| LXF-289 | 0.776 | 0.742 | 0.857 | 0.736 | 0.797 | 1.02 | 0.886 | 1.05 | 0.97 | 0.973 | 0.854 | 0.858 | 0.82 | 0.796 | 0.817 | 0.634 | 0.679 | 0.603 | 0.58 | 0.619 |
| NCI-H23 | 0.484 | 0.451 | 0.415 | 0.507 | 0.634 | 0.922 | 0.977 | 0.962 | 0.834 | 0.826 | 0.533 | 0.528 | 0.506 | 0.638 | 0.48 | 0.532 |  | 0.431 | 0.511 | 0.499 |
| NCI-H322M |  | 0.823 | 0.772 | 0.898 | 0.822 | 1.37 | 1.18 | 1.17 | 1.25 | 1.3 | 1.02 | 0.923 | 0.888 | 1.07 | 0.954 | 0.489 | 0.551 | 0.487 | 0.537 | 0.494 |
| NCI-H441 | 0.692 | 0.809 | 0.855 | 0.694 | 0.696 | 0.272 | 0.647 | 0.356 | 0.44 | 0.367 | 0.778 | 0.887 | 0.813 | 0.889 | 0.775 | 0.265 | 0.243 | 0.206 | 0.204 | 0.188 |
| NCI-H460 | 0.707 | 0.691 | 0.771 | 0.748 | 0.755 | 1.13 | 1.04 | 1.22 | 1.05 | 1.34 | 0.955 | 1.1 | 1.05 | 0.861 | 1.46 | 0.24 | 0.123 | 0.16 | 0.153 | 0.105 |
| NCI-H520 | 0.693 | 0.709 | 0.635 | 0.702 | 0.673 | 0.53 | 0.612 | 0.496 | 0.459 | 0.31 | 0.815 | 0.984 | 0.627 | 0.8 | 0.499 | 0.218 | 0.227 | 0.223 | 0.204 | 0.237 |
| NCI-H647 | 0.35 | 0.366 | 0.551 | 0.486 | 0.237 | 0.977 | 0.846 | 0.844 | 0.912 | 0.958 | 1.01 | 1.22 | 0.99 | 1.07 | 0.561 | 0.38 | 0.416 | 0.416 | 0.419 | 0.42 |
| NCI-H650 | 0.352 | 0.574 | 0.384 | 0.339 | 0.365 | 0.903 | 0.771 | 0.525 | 0.66 | 0.807 | 0.685 | 0.788 | 0.695 | 0.71 | 0.648 | 0.361 | 0.332 | 0.312 | 0.373 | 0.288 |
| NCI-H661 | 0.778 | 0.827 | 0.832 | 0.755 | 0.839 | 0.637 | 0.858 | 0.723 | 0.682 | 0.638 | 1.21 | 0.975 | 0.981 | 1.06 | 1.12 | 0.433 | 0.425 | 0.44 | 0.415 | 0.443 |
| NCI-H727 | 1.07 | 1.17 | 1.28 | 1.33 | 1.21 | 0.738 | 0.698 | 0.83 | 0.797 | 1.07 | 0.929 |  | 0.857 | 0.798 | 0.658 | 0.642 | 0.648 | 0.606 | 0.686 | 0.669 |
| NCI-H838 | 0.742 | 0.729 | 0.696 | 0.839 | 0.705 | 0.893 | 0.923 | 0.697 | 0.663 | 0.747 | 0.858 | 0.895 | 0.844 | 1.03 | 0.669 | 0.181 | 0.222 | 0.225 | 0.232 | 0.236 |
| NCI-H1355 | 0.553 | 0.632 |  | 0.596 | 0.644 | 1.2 | 1.15 |  | 1.1 | 1.25 | 1.17 | 1.09 | 1.14 | 1 | 1.14 | 0.422 | 0.414 | 0.41 |  | 0.37 |
| NCI-H1437 | 0.751 | 0.786 | 0.912 | 0.894 | 0.722 | 0.537 | 0.581 | 0.63 | 0.458 | 0.378 | 0.909 | 0.952 | 0.81 | 0.926 | 0.795 | 0.284 | 0.281 | 0.344 | 0.282 | 0.294 |
| NCI-H1650 | 0.762 | 0.53 | 0.502 | 0.55 | 0.465 | 0.207 | 0.238 | 0.23 | 0.205 | 0.186 | 0.978 | 0.969 | 0.802 | 1.16 | 0.857 | 0.322 | 0.313 | 0.27 | 0.317 | 0.287 |
